Data published in patent publication US10526416B2, “Anti-HER3 antibodies and uses of same” (Yeda Research and Development Co. Ltd., priority 2014, dated 2020).

Legend:
PC9ER-AZDR cells = assay: MTT assay on PC9ER-AZDR cells; conditions: 72 hours treatment
H1975 NSCLC cells = assay: H1975 NSCLC tumor growth in CD1-nu/nu mice; type: in vivo
EGFR phosphorylation = assay: Western blot of EGFR phosphorylation in PC9ER-AZDR cells; type: cell-based, human; conditions: 6 hours, 1 μM
Description: Cells were grown under specified conditions or treated as indicated. Following the cells were washed twice with cold PBS and scraped into lysis buffer [50 mM Hepes (pH 7.5), 10% glycerol, 150 mM NaCl, 1% Triton X-100, 1 mM EDTA, 1 mM EGTA, 10 mM NaF, 0.1 mM Na3VO4, and a complete protease inhibitor cocktail]. Thereafter, lysates were centrifuged at 14,000 g for 15 minutes at 4° C. The supernatant was used for subsequent procedures. Western blot analyses were conducted following protein separation using gel electrophoresis and transfer to nitrocellulose membranes. Immunoblotting was performed according to the antibody manufacturers' recommendation. Blocking was done using 5% milk in PBST (0.5% Tween20 Sigma Cat#P9416). Antibody binding to membrane blots was detected using horseradish peroxidase-secondary antibodies (Jackson ImmunoResearch Laboratories), followed by treatment with ECL Western blotting detection reagents (GE Healthcare).

BxPC3 xenografts = assay: BxPC3 cell xenografts in CD1-Nude mice; type: in vivo; conditions: 0.2 mg/injection IP every 3 days for 5 weeks, 7 to 8 mice per group
Description: (§1) FIGS. 15A-F show the effects of a mixture of two anti HER3 mAbs, in vivo on BxPC3 cell xenografts and in vitro. (FIGS. 15A-C) CD1-Nude mice were grafted subcutaneously with 5×10^6 BxPC3 cells. Once tumors became palpable (after 13 days), the mice were randomized into group of 8 mice and treated every 3 days for 5 weeks. The control group (CTRL) was injected intra-peritoneally (IP) with 200 μl PBS. The other groups were treated with mAb alone or in combination at a final concentration of 0.2 mg/0.2 ml of PBS per mouse. The mice were weighted once a week and the tumors measured twice a week. An average tumor size of 7-8 mice (+/−SEM) is shown. (FIGS. 15D-F) Proliferation assays using MTT were performed on BxPC-3. 5,000 cells per well were plated the day before and treated for 72 h with the indicated mAb treatment. Decreasing concentrations of the indicated mAb (alone or in combination) were used in medium supplemented with 1% serum and NRG (10 ng/ml).
All animal studies were approved by the Weizmann Institute's Review Board (IRB). Tumor bearing CD1/nude mice were randomized in groups of five-ten mice and injected subcutaneously in the right flank with cancer cells (3-5×10^6 per mouse depending on the cell line). mAbs were injected intraperitoneally at a total dose of 200 μg per mouse per injection, twice a week, for 5 weeks or until tumors reached the size of 1,500 mm^3. In experiments evaluating the effect of the TKI AZD-9291, Vehicle (Vehicle formulation: HPMC 0.5% (sigma Cat#56340), Tween80 0.1% (Sigma Cat #P8074 in water), Erlotinib at a dose of 50 mg/kg per injection, or AZD9291 at a dose of 1 or 5 mg/kg per injection were injected daily intraperitoneally. In one experiment (FIG. 16), mice were treated daily with Erlotinib at a dose of 50 mg/kg per injection until tumors reached a size of 800 mm^3 and only then were treated as indicated. Tumor volume and body weight were evaluated twice and once per week, respectively. Mice were euthanized when tumor size reached 1,500 mm^3. […] Survival of the tumor bearing mice was recorded and depicted by Kaplan-Meier analysis. […]

IgB3 = target: T1, IgB3 (Homo sapiens, UniProt P21860); assay: Antibody competition assay with Lumi4(Tb)-labeled NG33 on IgB3-coated plates; type: binding; conditions: NG33-K2 1 nM
T1 construct: To produce IgB3 (recombinant HER3 extracellular domain fused to a human IgG Fc domain); made in house
T1 sequence (P21860 20-643 limits assumed): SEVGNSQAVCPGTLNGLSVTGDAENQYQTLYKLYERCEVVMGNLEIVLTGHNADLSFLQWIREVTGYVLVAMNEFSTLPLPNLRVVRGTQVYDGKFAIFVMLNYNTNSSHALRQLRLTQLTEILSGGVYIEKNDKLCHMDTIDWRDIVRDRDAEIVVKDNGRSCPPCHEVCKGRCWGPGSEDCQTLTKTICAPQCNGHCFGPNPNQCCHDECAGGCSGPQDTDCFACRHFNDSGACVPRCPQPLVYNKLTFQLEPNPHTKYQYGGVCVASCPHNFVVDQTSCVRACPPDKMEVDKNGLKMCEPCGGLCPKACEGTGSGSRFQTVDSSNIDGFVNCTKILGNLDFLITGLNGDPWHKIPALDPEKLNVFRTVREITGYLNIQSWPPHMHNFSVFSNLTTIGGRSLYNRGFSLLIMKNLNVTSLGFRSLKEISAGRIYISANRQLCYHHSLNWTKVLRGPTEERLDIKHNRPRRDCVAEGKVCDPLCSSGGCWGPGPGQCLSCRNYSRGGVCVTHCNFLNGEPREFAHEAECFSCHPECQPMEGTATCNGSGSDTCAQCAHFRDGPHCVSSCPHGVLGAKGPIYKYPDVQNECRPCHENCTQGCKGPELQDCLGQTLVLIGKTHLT
T1 sequence (P01857 99-330 partner limits assumed): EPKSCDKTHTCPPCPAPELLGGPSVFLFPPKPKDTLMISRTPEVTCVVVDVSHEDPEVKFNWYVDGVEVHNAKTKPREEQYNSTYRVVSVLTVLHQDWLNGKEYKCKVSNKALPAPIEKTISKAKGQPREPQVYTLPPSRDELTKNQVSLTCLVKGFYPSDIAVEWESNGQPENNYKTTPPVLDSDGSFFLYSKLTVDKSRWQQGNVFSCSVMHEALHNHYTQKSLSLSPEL
Description: FIGS. 12A-D show a combination of two mAbs directed to two different epitopes of HER3. (FIGS. 12A and 12B) The antibodies NG33 and XC252 were labeled with the fluorescent dye Lumi4® Tb Cryptate (K2). 96 well-plate were coated with IgB3 (1.5 μg/ml), blocked with PBS-BSA and incubated for 1 h with various concentrations of mAbs under gentle shaking at RT. The labeled mAb, NG33-K2 (FIG. 12A) or XC252-K2 (FIG. 12B), was then added at 1 nM final concentration. After ah incubation, the plate was washed 4 times with KREBS buffer, and the fluorescence intensity at 610 nm was measured using a fluorescence microplate reader. (FIG. 12C) The various anti-HER3 mAb combinations were studied for their ability to trigger HER3 degradation using N87 cells. Cells were treated for 2 h at 37° C. with mAb (10 μg/ml). After cell lysis and protein extraction, the samples were subjected to immunoblotting with the indicated antibodies. (FIG. 12D) The combination's capacity to modulate NRG-induced phosphorylation of HER3, AKT and ERK was evaluated using N87 cells. After 20 min treatment at 37° C. with 10 μg/ml of mAbs, NRG (20 ng/ml) was added to the cells for 10 min. The cells were then lysed, and equal quantities of lysate protein were electrophoresed before immunoblotting, as indicated.
Agent labeling was performed by Cisbio. […] Following 1 h incubation, the plate was washed 4 times with KREBS buffer (146 mM NaCl, 4 mM KCl, 0.5 mM MgCl2, 1 mM CaCl2, 10 mM Hepes, 1 gr/L glucose, and 1 mg/mL albumin), and the fluorescent intensity (excitation: 488 nm, emission: 610 nm) was measured using a fluorescence microplate reader. […] Finally, following two washes with KREBS buffer, the fluorescence intensity was measured at 670 nm (excitation: 620 nm).
Combinations of antibodies directed against two different epitopes of the same receptor, as has been previously shown, can improve the effect of treatment with a single mAb (28, 29). […] First, it was determined which antibody from the anti-HER3 series targets an epitope distinct from that targeted by NG33. […]

BxPC3 cells = assay: MTT assay on BxPC3 cells in culture; type: cell-based, human; conditions: 3 days
Description: as §1
To determine if the combination of NG33 mAb with another anti-HER3 mAb is more efficient than using NG33 alone, the combination of two mAbs, NG33 and XC252, was tested on several tumor cell lines, which were grafted subcutaneously (gastric: N87, lung: A549, pancreatic: BxPC3, ovarian: OVCAR-5, and head and neck: CAL-27, FIG. 14). This pilot was performed with 3 mice per group. Mice were injected twice a week with the mAb combination or with PBS. The best responder of these in vivo models for solid tumor growth was the BxPC3 xenograft model. […] This experiment was performed on 7 to 8 mice per group. The mice were treated every 3 days with PBS, each mAb alone or a mAb combination, for 5 weeks (0.2 mg/injection). […] In order to reinforce the in vivo data, the cytotoxicity of each mAb alone or in combination with NG33 was tested on BxPC3 cells in culture (FIGS. 15D, 15E and 15F). Decreasing concentrations of mAb were used and a MTT assay was performed following 3 days of treatment. […] On the contrary, XC252 used alone has a […] cytotoxic impact on BxPC3 proliferation leading to 60% inhibition of cell survival at high concentration.

## C=CC(=O)Nc1cc(Nc2nccc(-c3cn(C)c4ccccc34)n2)c(OC)cc1N(C)CCN(C)C [AZD-9291]
PC9ER-AZDR cells
  survival / sensitivity of PC9ER-AZDR cells (MTT): lost sensitivity to AZD-9291
H1975 NSCLC cells; AZD9291 5 mg/kg/day or triple mAbs
  inhibition of H1975 tumor growth: comparably inhibited growth of the erlotinib-resistant human NSCLC
H1975 NSCLC cells; H1975 tumor-bearing mice, AZD9291 5 mg/kg/day
  body weight gain: slightly inhibited body weight gain compared with the triple mAb combination
EGFR phosphorylation
  EGFR phosphorylation in PC9ER-AZDR cells on exposure: EGFR remained phosphorylated

B1: NG140: anti-HER3 mAb; light chain CDRs SEQ ID NOs: 13-15, heavy chain CDRs 16-18 (antibody, V domains shown)
VH: QVQLKESGPGLVKPSQSLSLTCSVTGYSITSGYYWNWIRQFPGNKLEWMGSIYYDGSNNYNPSLKNRISVTRDTSKNQFFLKLNSVTTEDTATYYCARDYDVGYAMDYWGQGASVTVSS
VL: DIVLTQSSSYLSVSLGGRVTITCKASDHINNWLAWYQQKPGNAPRLLISGATSLETGVPSRFSGSGSGKDYTLSITSLQTEDVATYYCQQYWSIPWTFGGGTKLEIK
modifications: VH chain of NG140 polypeptide; VL chain of NG140 polypeptide
BxPC3 xenografts
  effect on BxPC3 xenograft tumor growth: no statistically significant ability to decrease tumor growth
IgB3
  effect on binding of Lumi4(Tb)-labeled NG33 to IgB3: did not alter NG33 binding
BxPC3 cells
  effect on BxPC3 proliferation/survival (in words): did not interfere with cell proliferation
